In patent publication US7378411B2, “Substituted thienopyrimidinones as a mitotic kinesin inhibitor” (Merck & Co., Inc., priority 2001, dated 2008) one finds IC50 data, which are given here for five compounds.

In this assay the target is T1, human KSP motor domain (Homo sapiens, UniProt P52732).
T1 construct: were used to amplify the motor domain and the neck linker region; made in house; host or cells: E. coli BL21 (DE3), pRSETa
T1 sequence (P52732 18-359 limits assumed): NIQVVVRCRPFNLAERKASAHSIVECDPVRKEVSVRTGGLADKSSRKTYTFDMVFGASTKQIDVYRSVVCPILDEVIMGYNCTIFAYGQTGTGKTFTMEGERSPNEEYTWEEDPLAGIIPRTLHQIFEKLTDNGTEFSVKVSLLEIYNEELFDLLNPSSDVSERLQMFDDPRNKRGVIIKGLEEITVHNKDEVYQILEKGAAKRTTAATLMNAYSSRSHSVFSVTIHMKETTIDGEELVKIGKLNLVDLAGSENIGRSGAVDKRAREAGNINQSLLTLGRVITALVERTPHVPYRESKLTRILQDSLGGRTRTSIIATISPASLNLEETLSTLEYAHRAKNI
The assay can be described thus: Kinesin ATPase In Vitro Assay. Format: biochemical. To be noted: KSP(367H) motor domain with microtubules, 1 mM ATP, 23° C.; free phosphate by quinaldine red/ammonium molybdate. The source says:
I. Kinesin ATPase In Vitro Assay
Cloning and Expression of Human Poly-histidine Tagged KSP Motor Domain (KSP(367H))
Plasmids for the expression of the human KSP motor domain construct were cloned by PCR using a pBluescript full length human KSP construct (Blangy et al., Cell, vol. 83, pp 1159-1169, 1995) as a template. The N-terminal primer 5′-[…] (SEQ.ID.NO.:) and the C-terminal primer 5′-[…] […] (SEQ.ID.NO.:) were used to amplify the motor domain and the neck linker region. The PCR products were digested with AseI and XhoI, ligated into the NdeIl/XhoI digestion product of pRSETa (Invitrogen) and transformed into E. coli BL21 (DE3).
Cells were grown at 37° C. to an OD600 of 0.5. After cooling the culture to room temperature expression of KSP was induced with 100 μM IPTG and incubation was continued overnight. Cells were pelleted by centrifugation and washed once with ice-cold PBS. Pellets were flash-frozen and stored −80° C.
Cell pellets were thawed on ice and resuspended in lysis buffer (50 mM K-HEPES, pH 8.0, 250 mM KCl, 0.1% Tween, 10 mM imidazole, 0.5 mM Mg-ATP, 1 mM PMSF, 2 mM benzimidine, 1× complete protease inhibitor cocktail (Roche)). Cell suspensions were incubated with 1 mg/ml lysozyme and 5 mM β-mercaptoethanol on ice for 10 minutes, followed by sonication (3×30 sec). All subsequent procedures were performed at 4° C. Lysates were centrifuged at 40,000×g for 40 minutes. Supernatants were diluted and loaded onto an SP Sepharose column (Pharmacia, 5 ml cartridge) in buffer A (50 mM K-HEPES, pH 6.8, 1 mM MgCl2, 1 mM EGTA, 10 μM Mg-ATP, 1 mM DTT) and eluted with a 0 to 750 mM KCl gradient in buffer A. Fractions containing KSP were pooled and incubated with Ni-NTA resin (Qiagen) for one hour. The resin was washed three times with buffer B (Lysis buffer minus PMSF and protease inhibitor cocktail), followed by three 15-minute incubations and washes with buffer B. Finally, the resin was incubated and washed for 15 minutes three times with buffer C (same as buffer B except for pH 6.0) and poured into a column. KSP was eluted with elution buffer (identical to buffer B except for 150 mM KCl and 250 mM imidazole). KSP-containing fractions were pooled, made 10% in sucrose, and stored at −80° C.
Microtubules are prepared from tubulin isolated from bovine brain. Purified tubulin (>97% MAP-free) at 1 mg/ml is polymerized at 37° C. in the presence of 10 μM paclitaxel, 1 mM DTT, 1 mM GTP in BRB80 buffer (80 mM K-PIPES, 1 mM EGTA, 1 mM MgCl2 at pH 6.8). The resulting microtubules are separated from non-polymerized tubulin by ultracentrifugation and removal of the supernatant. The pellet, containing the microtubules, is gently resuspended in 10 μM paclitaxel, 1 mM DTT, 50 μg/ml ampicillin, and 5 μg/ml chloramphenicol in BRB80.
The kinesin motor domain is incubated with microtubules, 1 mM ATP (1:1 MgCl2: Na-ATP), and compound at 23° C. in buffer containing 80 mM K-HEPES (pH 7.0), 1 mM EGTA, 1 mM DTT, 1 mM MgCl2, and 50 mM KCl. […] Free phosphate from the ATP hydrolysis reaction is measured via a quinaldine red/ammonium molybdate assay by adding 150 μl of quench C buffer containing a 2:1 ratio of quench A:quench B. Quench A contains 0.1 mg/ml quinaldine red and 0.14% polyvinyl alcohol; quench B contains 12.3 mM ammonium molybdate tetrahydrate in 1.15 M sulfuric acid. The reaction is incubated for 10 minutes at 23° C., and the absorbance of the phospho-molybdate complex is measured at 540 nm.

For orientation: IC50 means the point on the concentration scale where inhibition reaches its midpoint. A lower IC50 goes with greater potency in that assay. Consider `CCC(c1nc2sccc2c(=O)n1Cc1ccccc1)N(CCN(C)C)C(=O)c1ccc(Br)cc1` (centres unmarked) [Compound 3-2, N-[1-(3-benzyl-4-oxo-3,4-dihydrothieno[2,3-d]pyrimidin-2-yl)propyl]-4-bromo-N-[2-(dimethylamino)ethyl]benzamide], for which the IC50 is no more than 50 µM.

With `CCC(c1nc2sc(Br)cc2c(=O)n1Cc1ccccc1)N(CCN(C)C)C(=O)c1ccc(Br)cc1` (centres unmarked) [Compound 2-10, N-[1-(3-benzyl-6-bromo-4-oxo-3,4-dihydrothieno[2,3-d]pyrimidin-2-yl)propyl]-4-bromo-N-[2-(dimethylamino)ethyl]benzamide], the IC50 is no more than 50 µM.

In turn, `CCC(c1nc2sc(Br)c(Br)c2c(=O)n1Cc1ccccc1)N(CCN(C)C)C(=O)c1ccc(Br)cc1` (centres unmarked) [Compound 2-9, N-[1-(3-benzyl-5,6-dibromo-4-oxo-3,4-dihydrothieno[2,3-d]pyrimidin-2-yl)propyl]-4-bromo-N-[2-(dimethylamino)ethyl]benzamide] had an IC50 of no more than 50 µM.

`CCC(c1nc2ccsc2c(=O)n1Cc1ccccc1)N(CCN(C)C)C(=O)c1ccc(Br)cc1` (centres unmarked) [Compound 1-8, N-[1-(3-Benzyl-4-oxo-3,4-dihydrothieno[3,2-d]pyrimidin-2-yl)propyl]-4-bromo-N-[2-(dimethylamino)ethyl]benzamide] gave an IC50 of no more than 50 µM.

`CCC(c1nc2sccc2c(=O)n1Cc1ccccc1)N(CCN(C)C)Cc1ccc(Br)cc1` (centres unmarked) [Compound 4-1, 3-benzyl-2-(1-{(4-bromobenzyl)[2-(dimethylamino)ethyl]amino}propyl)thieno[2,3-d]pyrimidin-4(3H)-one] came in with an IC50 of no more than 50 µM.
